Experimental data reported in patent publication US20110264026A1, “Azo Derivatives and Uses Thereof in Phototherapy” (priority 2008, published 2011).
pIC50: −log10 of the molar value.

Experiments:
[1] = tested on: human myeloid leukemia U937 cell line; test: Cell viability of tumor cells exposed to photosensitizer and electromagnetic radiation; assay type: cell-based; details: for viability at 13 µM: 13 μM compound; for viability at 25 µM: 25 μM compound; for viability at 6 µM: 6 μM compound
Protocol: A general procedure is carried out for measuring cell viability upon exposure of tumor cells to the fused ring diaza compound of Formula (FX33) and electromagnetic radiation. The compound of Formula (FX33) has an absorption maxima (λmax) of 334 nm. The cell viability measurements are carried out using human myeloid leukemia U937 cell line by the standard WST-1 assay. In this procedure, U397 Leukemia cells (0.5×10^6) are plated in standard T-25 cell culture flasks, and are exposed to four controls and a series of test conditions corresponding to a range of fused ring diaza compound concentrations, summarized in Table 1.
The compound of formula (FX33) is dissolved in 20 to 30% DMSO at an initial concentration of 2-4 mM and serially diluted to the final desired value such that the amount of DMSO exposed to the cells is below 0.5%. The cells are incubated at 37° C. with various concentrations of the fused ring diaza compound photosensitizer for about 30 minutes prior to exposure to electromagnetic radiation. […] It should be noted that in the present study, the electromagnetic radiation source is not optimized with respect to power and wavelength. The viability of cells is assessed after 24 hours following exposure to electromagnetic radiation. The electromagnetic radiation source is a B-100SP High Intensity Lamp from UVP. Once exposure is complete, cells are processed to determine percent viability using Hank's Balanced Salt Solution (HBSS), Trypan blue stain, and a hemacytometer to count live and dead cells. The number of viable cells is determined and percent viability is determined using:
FIG. 4 provides cell viability results for test conditions wherein cells are exposed to electromagnetic radiation and the compound of formula (FX33) for concentrations of 6 μM, 13 μM and 25 μM. […] Cells are incubated in the absence of the compound of formula (FX33) (0 μM) and with the compound of formula (FX33) at concentrations of 6 μM, 13 μM and 25 μM. The cells are exposed to electromagnetic radiation from a B-100SP High Intensity Lamp for 0, 5, 10, and 20 minutes. […] In the presence of 13 μM of the diaza compound of formula (FX33), cells have about 94% viability with electromagnetic radiation exposure for 5 minutes, about 95% viability with electromagnetic radiation exposure for 10 minutes, and about 58% viability with electromagnetic radiation exposure for 20 minutes. In the presence of 25 μM of the compound of formula (FX33), cells have about 86% viability with electromagnetic radiation exposure for 5 minutes, about 30% viability with electromagnetic radiation exposure for 10 minutes, and about 8% viability with electromagnetic radiation exposure for 20 minutes.

Absorption maximum = assay type: physicochemical
[2] = Homo sapiens, U-937, 5 min, electromagnetic radiation exposure 5 minutes
[3] = Homo sapiens, U-937, 10 min, electromagnetic radiation exposure 10 minutes
[4] = Homo sapiens, U-937, 20 min, electromagnetic radiation exposure 20 minutes

Structure (SMILES): COc1cc2c3c(cc(=O)oc3c1OC)NN=C2 [formula (FX33)]
- effect on cell viability (in words) ([1]; 6, 13 and 25 μM, exposure 0, 5, 10 and 20 minutes): concentration-dependent and electromagnetic radiation exposure time-dependent decreases in cell viability
- viability at 13 µM [1, 2]: ~94%
- viability at 25 µM [1, 2]: ~86%
- viability at 6 µM [1, 3]: 100%
- viability at 13 µM [1, 3]: ~95%
- viability at 25 µM [1, 3]: ~30%
- viability at 6 µM [1, 4]: ~92%
- viability at 13 µM [1, 4]: ~58%
- viability at 25 µM [1, 4]: ~8%
- pIC50 ([1]; Homo sapiens, U-937, 20 min, cells exposed to electromagnetic radiation and photosensitizer for 20 minutes, read-out: VC50/20 (concentration at which 50% decrease in cell viability is observed)): 5.28
- viability at 6 µM ([1]; Homo sapiens, U-937, electromagnetic radiation exposure 5 minutes (B-100SP lamp, 325-425 nm), viability assessed after 24 hours): 100%
- absorption maxima (λmax) (Absorption maximum): 334 nm
